Test results: publication PMC11984419, “Differential senolytic inhibition of normal versus Aβ-associated cholinesterases: implications in aging and Alzheimer’s disease” (Aging (Albany NY), 2025)
Counter-ions that a name gives are not always drawn. Like-named read-outs stand apart in the source and are kept apart here.

Columns and labels:
[1] = target: T1, BChE purified from human plasma (Homo sapiens, UniProt P06276); experiment: Enzyme kinetic study (Ellman's assay, Lineweaver-Burk) with BChE; type: biochemical; details: for BChE mode of inhibition: from Lineweaver-Burk plots
T1 construct: BChE purified from human plasma was a gift from Dr. Oksana Lockridge; tissue gift from Dr. Oksana Lockridge (Eppley Institute, University of Nebraska Medical Center); host or cells: human plasma
Protocol: (§1) Enzyme kinetic studies were performed as previously described, using Ellman’s assay. Briefly, in a quartz cuvette (1 cm pathlength), a 0.577 mM DTNB solution in 0.1 M potassium phosphate buffer (1.6 mL, pH 7.0) was combined at room temperature with either recombinant AChE (0.1 mL, 3.7 nM) in 0.005% aqueous gelatin or purified human serum BChE (0.1 mL, 5.85 nM) in 0.005% aqueous gelatin and mixed with a senolytic or nootropic compound (Figure 1) dissolved in 50% (v/v) aqueous acetonitrile (0.05 mL). […] Substrate concentrations were kept constant while the senolytic concentrations varied (0-140 μM). Changes in absorbance (ΔA/min), reflecting the rate of ATChI or BTChI hydrolysis with their respective enzymes, were recorded spectrophotometrically every 5 seconds for 1 minute.
(§2) As done previously, Lineweaver-Burk plots were generated for each senolytic and nootropic compound with the velocity (v) of each reaction determined using Beer’s Law, where v = (ΔA/min)/(εl), ε is the molar extinction coefficient for 5-thio-2-nitrobenzoic acid (TNB) (13600 M^−1 cm^−1), and l is the cuvette pathlength (1 cm). Replotting the calculated slopes from each double reciprocal plot against senolytic and nootropic concentrations, gave the inhibitor constant (Ki, M) as the x-intercept. The mode of inhibition (competitive, non-competitive, mixed non-competitive, or uncompetitive) was also determined by analyzing the relational pattern of linear regressions for varying concentrations of the same senolytic or nootropic compound. Enzyme kinetic experiments were performed in triplicate and kinetic parameter values were averaged.

[2] = target: BChE; details: read-out: Literature BChE Ki values, cited from earlier work
[3] = target: T2, recombinant human AChE (Homo sapiens, UniProt P22303); experiment: Enzyme kinetic study (Ellman's assay, Lineweaver-Burk) with AChE; type: biochemical; details: for AChE mode of inhibition: from Lineweaver-Burk plots
T2 construct: purchased MilliporeSigma Canada Ltd. (Oakville, Ontario, Canada)
Protocol: as §1, §2

[4] = target: AChE; details: ref Katalinić et al. [60]; read-out: Literature AChE Ki values; cited from earlier work
[5] = system: ChE associated with plaques; details: ref [37]; cited from earlier work
[6] = system: ChE associated with normal neural elements; details: ref [37]; cited from earlier work
[7] = target: T3, AChE associated with normal neural elements (Homo sapiens, UniProt P22303); experiment: Karnovsky-Roots histochemical staining, AChE associated with normal neural elements (pH 8.0); type: biochemical; details: for Inhibition of staining, AChE pH 8.0: normal neural elements, AD thalamus, average ranking of four AD cases, compound 0.25-1.3 mM in KR solution; for Inhibition of AChE staining associated with normal neural elements (in words): pH 8.0, relative to controls
T3 construct: post-mortem brain tissues from sex- and age-matched AD cases; tissue Maritime Brain Tissue Bank, Dalhousie University; host or cells: post-mortem human AD brain: orbitofrontal cortex (plaques, pH 6.8) and thalamus (normal neural elements, pH 8.0)
Protocol: (§3) Histochemical staining for AChE and BChE activity in brain tissues was done using a modified Karnovsky-Roots (KR) method. Tissue sections were first rinsed for 30 min in 0.1 M PB, followed by 30 min in 0.1 M PB with […] hydrogen peroxide (H2O2) and then rinsed for 30 min with 0.1 M maleate buffer (MB; pH 6.8 or […]) prior to incubation in the KR solution. Sections stained for AChE were incubated in the KR solution for 1.75 hr, while sections stained for BChE were incubated for 2.5 hr. The KR staining solution contained 0.5 mM sodium citrate, 0.47 mM cupric sulfate, and 0.05 mM of potassium ferricyanide, a thioester ChE substrate and ChE inhibitor in MB at pH 6.8 to stain for ChEs associated with AD pathology or pH 8.0 to stain for ChEs associated with normal neural elements. For AChE staining, ATChI (0.4 mM) was used as the substrate and ethopropazine (0.06 mM) was used to inhibit BChE. For BChE staining, BTChI (0.8 mM) was used as the substrate and BW 284c51 (0.01 mM) was used to inhibit AChE. Following incubation in KR, sections were rinsed in distilled water (dH2O) for 30 min, incubated in a 0.1% cobalt chloride solution in dH2O for 10 min, and rinsed again in dH20 for 30 min. Sections were incubated in 1.39 mM 3,3’-diaminobenzidine tetrahydrochloride (DAB) in PB (pH 7.4) for 5 min and then developed using 50 μL of 0.3% H2O2 per mL of DAB solution. The reaction was stopped by a 30 min rinse in 0.01 M acetate buffer (pH 3.3). Stained sections were mounted on glass slides, cover-slipped and examined with brightfield microscopy.
(§4) To evaluate the interactions of senolytic and nootropic compounds with ChEs in brain tissues, the above histochemical technique was used with minor variations to the KR incubation. Senolytic and nootropic compounds were dissolved in 50% aqueous acetonitrile to make a stock solution. […] Following incubation for AChE (1.75 hr) and BChE (2.5 hr) in the KR solution, staining was completed as described above.
(§5) Positive controls included staining for BChE and AChE activity at pH 6.8 and pH 8.0 without any additions. Negative controls were utilized to validate staining specificity of BChE and AChE at pH 6.8 and pH 8.0, where the substrates (BTChI and ATChI, respectively) were omitted, as previously described. […] Briefly, 50% aqueous acetonitrile was added to the KR solution, without any senolytic or nootropic compound, while maintaining the same volume as the compound additives.
(§6) A qualitative method was used to evaluate the effect of senolytic and nootropic compounds on ChE histochemical staining, as done previously. Inhibition of staining intensity was categorized as follows: No reduction (-), slight (x), moderate (xx), or strong (xxx). Tissue sections were analyzed using brightfield microscopy on an Olympus BX50F microscope (Olympus Optical Co., Ltd., Tokyo, Japan). Photomicrographs of the stained tissue sections were taken using a Zeiss Axio Scan.Z1 slide scanner with Zen 3.1 Blue Edition software (Carl Zeiss Canada Ltd., Toronto, Ontario, Canada). Figures were assembled using Adobe Photoshop (CS 5, Version 12.0, San Diego, CA, USA). The brightness of each individual image was adjusted to ensure backgrounds matched for analysis.

[8] = target: T4, BChE associated with β-amyloid plaques (Homo sapiens, UniProt P06276); experiment: Karnovsky-Roots histochemical staining, BChE associated with plaques (pH 6.8); type: biochemical; details: for Inhibition of BChE staining associated with plaques (in words): pH 6.8, compared with control staining; for Inhibition of staining, BChE pH 6.8: plaques, AD orbitofrontal cortex, average ranking of four AD cases, compound 0.25-1.3 mM in KR solution
T4 construct: post-mortem brain tissues from sex- and age-matched AD cases; tissue Maritime Brain Tissue Bank, Dalhousie University; host or cells: post-mortem human AD brain: orbitofrontal cortex (plaques, pH 6.8) and thalamus (normal neural elements, pH 8.0)
Protocol: as §3, §4, §5, §6

[9] = target: T5, AChE associated with β-amyloid plaques (Homo sapiens, UniProt P22303); experiment: Karnovsky-Roots histochemical staining, AChE associated with plaques (pH 6.8); type: biochemical; details: for Inhibition of AChE staining associated with plaques (in words): pH 6.8, compared with control staining; for Inhibition of staining, AChE pH 6.8: plaques, AD orbitofrontal cortex, average ranking of four AD cases, compound 0.25-1.3 mM in KR solution
T5 construct: post-mortem brain tissues from sex- and age-matched AD cases; tissue Maritime Brain Tissue Bank, Dalhousie University; host or cells: post-mortem human AD brain: orbitofrontal cortex (plaques, pH 6.8) and thalamus (normal neural elements, pH 8.0)
Protocol: as §3, §4, §5, §6

[10] = target: T6, BChE associated with normal neural elements (Homo sapiens, UniProt P06276); experiment: Karnovsky-Roots histochemical staining, BChE associated with normal neural elements (pH 8.0); type: biochemical; details: for Inhibition of staining, BChE pH 8.0: normal neural elements, AD thalamus, average ranking of four AD cases, compound 0.25-1.3 mM in KR solution; for Inhibition of BChE staining associated with normal neural elements (in words): pH 8.0, relative to controls
T6 construct: post-mortem brain tissues from sex- and age-matched AD cases; tissue Maritime Brain Tissue Bank, Dalhousie University; host or cells: post-mortem human AD brain: orbitofrontal cortex (plaques, pH 6.8) and thalamus (normal neural elements, pH 8.0)
Protocol: as §3, §4, §5, §6

[11] = purified human serum BChE, BTChI substrate, pH 7.0, triplicate

T5 sequence (P22303 32-614): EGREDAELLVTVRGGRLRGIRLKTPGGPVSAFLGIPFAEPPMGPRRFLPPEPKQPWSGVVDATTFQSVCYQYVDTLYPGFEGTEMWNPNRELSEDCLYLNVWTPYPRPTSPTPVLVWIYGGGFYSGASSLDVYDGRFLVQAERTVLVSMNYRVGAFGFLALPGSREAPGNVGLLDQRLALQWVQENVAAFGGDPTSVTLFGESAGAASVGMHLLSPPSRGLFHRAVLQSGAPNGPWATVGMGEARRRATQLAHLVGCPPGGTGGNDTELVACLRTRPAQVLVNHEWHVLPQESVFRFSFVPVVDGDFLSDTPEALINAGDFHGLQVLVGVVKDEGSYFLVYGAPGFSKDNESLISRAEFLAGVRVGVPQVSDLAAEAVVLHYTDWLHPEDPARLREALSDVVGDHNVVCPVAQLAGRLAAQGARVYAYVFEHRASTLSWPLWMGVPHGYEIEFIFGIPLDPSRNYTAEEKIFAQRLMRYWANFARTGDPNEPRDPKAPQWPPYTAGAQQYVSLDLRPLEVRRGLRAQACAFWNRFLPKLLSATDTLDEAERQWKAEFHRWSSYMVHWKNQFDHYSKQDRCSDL
T3 sequence (P22303 32-614): as above
T2 sequence (P22303 32-614): as above
T6 sequence (P06276 29-602): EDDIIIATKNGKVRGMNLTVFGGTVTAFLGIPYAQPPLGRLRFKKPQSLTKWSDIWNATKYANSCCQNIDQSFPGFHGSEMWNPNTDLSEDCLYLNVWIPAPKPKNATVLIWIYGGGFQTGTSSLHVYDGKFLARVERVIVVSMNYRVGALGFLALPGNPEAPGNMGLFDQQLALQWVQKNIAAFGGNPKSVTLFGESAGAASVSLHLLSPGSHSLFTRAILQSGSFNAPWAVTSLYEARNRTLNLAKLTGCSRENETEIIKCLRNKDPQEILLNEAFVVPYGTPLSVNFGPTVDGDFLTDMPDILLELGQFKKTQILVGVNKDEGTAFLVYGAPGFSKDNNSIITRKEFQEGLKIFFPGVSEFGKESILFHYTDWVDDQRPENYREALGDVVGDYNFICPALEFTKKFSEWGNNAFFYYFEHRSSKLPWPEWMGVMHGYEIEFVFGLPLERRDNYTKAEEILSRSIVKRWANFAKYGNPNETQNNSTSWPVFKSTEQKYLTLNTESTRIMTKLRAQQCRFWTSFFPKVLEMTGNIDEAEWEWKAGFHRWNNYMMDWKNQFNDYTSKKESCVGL
T4 sequence (P06276 29-602): as above
T1 sequence (P06276 29-602): as above

Structure (SMILES): O=c1c(O)c(-c2ccc(O)c(O)c2)oc2cc(O)cc(O)c12 [Quercetin (4), quercetin]
- BChE mode of inhibition [1]: (Mixed Non-competitive)
- Ki ([2]; ref Katalinić et al. [60]): 68 µM
- Ki ([2]; ref Orhan et al. [87]): 46.8 µM
- Ki [3]: 62.2 µM
- AChE mode of inhibition [3]: (Mixed Non-competitive)

Structure (SMILES): O=c1c(O)c(-c2ccc(O)c(O)c2)oc2cc(O)ccc12 [Fisetin (3), fisetin]
- BChE mode of inhibition [1]: uncompetitive inhibition
- Ki ([1]; purified human serum BChE, BTChI substrate, pH 7.0, triplicate, read-out: Experimental BChE Ki): 94.4 µM
- Ki ([2]; ref Katalinić et al. [60]): 94.2 µM
- AChE mode of inhibition [3]: competitive inhibition
- Ki ([3]; recombinant human AChE, ATChI substrate, pH 7.0, triplicate, read-out: Experimental AChE Ki): 110 µM
- Ki [4]: 100 µM

Structure (SMILES): COc1ccc2c3c1O[C@H]1C[C@@H](O)C=C[C@@]31CCN(C)C2 [galantamine]
- Inhibition of ChE staining associated with plaques [5]: inhibits
- Inhibition of ChE staining associated with normal neural elements [6]: inhibits

Structure (SMILES): COc1ccc(COc2ccc(Cc3cnc(N)nc3N)cc2OC)cc1 [GW2580 (5), GW2580]
- Inhibition of staining, AChE pH 8.0 [7]: - (– (no inhibition))
- Inhibition of AChE staining associated with normal neural elements (in words) [7]: did not inhibit
- Experimental BChE Ki [1, 11]: No Inhibition
- Experimental BChE Ki ([1]; purified human serum BChE, BTChI substrate, pH 7.0, triplicate, listed as 5): did not inhibit
- Ki [3]: 71 µM
- AChE mode of inhibition [3]: (Mixed Non-competitive)
- Inhibition of BChE staining associated with plaques (in words) [8]: did inhibit
- Inhibition of staining, BChE pH 6.8 [8]: x/xx
- Inhibition of AChE staining associated with plaques (in words) [9]: did not inhibit
- Inhibition of staining, AChE pH 6.8 [9]: - (– (no inhibition))
- Inhibition of staining, BChE pH 8.0 [10]: - (– (no inhibition))
- Inhibition of BChE staining associated with normal neural elements (in words) [10]: did not inhibit

Structure (SMILES): COC(=O)c1ccc2c(c1)NC(=O)/C2=C(\Nc1ccc(N(C)C(=O)CN2CCN(C)CC2)cc1)c1ccccc1 [Nintedanib (2), nintedanib]
- Inhibition of staining, AChE pH 8.0 [7]: - (– (no inhibition))
- Inhibition of AChE staining associated with normal neural elements (in words) [7]: no inhibition
- Experimental BChE Ki [1, 11]: No Inhibition
- Experimental BChE Ki ([1]; purified human serum BChE, BTChI substrate, pH 7.0, triplicate, listed as 2): did not inhibit
- Ki [3]: 7.1 µM
- AChE mode of inhibition [3]: (Mixed Non-competitive)
- Inhibition of BChE staining associated with plaques (in words) [8]: complete inhibition
- Inhibition of staining, BChE pH 6.8 [8]: xxx (xxx (strong inhibition))
- Inhibition of AChE staining associated with plaques (in words) [9]: complete inhibition
- Inhibition of staining, AChE pH 6.8 [9]: xxx (xxx (strong inhibition))
- Inhibition of staining, BChE pH 8.0 [10]: - (– (no inhibition))
- Inhibition of BChE staining associated with normal neural elements (in words) [10]: no inhibition

Structure (SMILES): CN(C)CCOC(=O)COc1ccc(Cl)cc1 [Meclofenoxate Hydrochloride (6), meclofenoxate hydrochloride]
- Inhibition of staining, AChE pH 8.0 [7]: - (– (no inhibition))
- Inhibition of AChE staining associated with normal neural elements (in words) [7]: did not inhibit
- BChE mode of inhibition [1]: (Mixed Non-competitive)
- Ki [3]: 63.2 µM
- AChE mode of inhibition [3]: (Mixed Non-competitive)
- Inhibition of BChE staining associated with plaques (in words) [8]: slight inhibition
- Inhibition of AChE staining associated with plaques (in words) [9]: moderate to strong inhibition
- Inhibition of staining, BChE pH 8.0 [10]: - (– (no inhibition))
- Inhibition of BChE staining associated with normal neural elements (in words) [10]: did not inhibit

Structure (SMILES): Cc1nc(Nc2ncc(C(=O)Nc3c(C)cccc3Cl)s2)cc(N2CCN(CCO)CC2)n1 [Dasatinib (1), dasatinib]
- Inhibition of staining, AChE pH 8.0 [7]: - (– (no inhibition))
- Inhibition of AChE staining associated with normal neural elements (in words) [7]: no inhibition
- BChE mode of inhibition [1]: (Mixed Non-competitive)
- Ki [3]: 28.2 µM
- AChE mode of inhibition [3]: (Mixed Non-competitive)
- Inhibition of BChE staining associated with plaques (in words) [8]: complete inhibition
- Inhibition of staining, BChE pH 6.8 [8]: xxx (xxx (strong inhibition))
- Inhibition of AChE staining associated with plaques (in words) [9]: reduced by varying degrees
- Inhibition of staining, AChE pH 6.8 [9]: xx/x^a
- Inhibition of staining, BChE pH 8.0 [10]: - (– (no inhibition))
- Inhibition of BChE staining associated with normal neural elements (in words) [10]: no inhibition
